Values of other authors, collected in patent US9169245B2, “Inhibitors of PDE4 enzyme and antagonists of muscarinic M3 receptor” (CHIESI FARMACEUTICI S.p.A., priority 2012, dated 2015).

Assays:
[1] = patients with severe disease, frequent exacerbations and mucus hypersecretion
[2] = COPD patients, oral, given over 4 weeks

O=C(Nc1c(Cl)cncc1Cl)c1ccc(OC(F)F)c(OCC2CC2)c1 [roflumilast]
improvement of FEV 1 [1]: approximately 50 ml | reduction of exacerbation [1]: about 15% | reduction of the numbers of neutrophils in sputum [2]: 36%
